{"source": "patent US12545649B2", "about": "“WDR5-MYC inhibitors” (Vanderbilt University, priority 2019, dated 2026)", "data": [{"molecular_target": "T1, WDR5 (Homo sapiens, UniProt P61964)", "assay": "Competition-based fluorescence polarization anisotropy (FPA) assay", "format": "binding", "details": "FITC small molecule probe", "procedure": "(Thomas, […], et al, Molecular Cell 2015 (58): 440-452). Fluorescence polarization measurements were performed in 384-well plates (Greiner Bio One) using a Cytation 3 plate reader (BioTek). […] […] The assay buffer contained 200 mM phosphate, 300 mM NaCl, and 0.5 mM TCEP and 0.1% Chaps at pH 6.0. Compounds were serially diluted in assay buffer at a top concentration sufficient to yield a 9-point dose-response curve.", "units": {"Ki": "nM"}, "values": [{"smiles": "O=S(=O)(Nc1nc2ccc(OC(F)(F)F)cc2s1)c1cc(Br)cc(Cl)c1O", "note": "[Example 40, 5-Bromo-3-chloro-2-hydroxy-N-(6-(trifluoromethoxy)benzo[d]thiazol-2-yl)benzenesulfonamide]", "Ki": 3900}, {"smiles": "O=S(=O)(Nc1cn(C2CCCC2)cn1)c1cc(Br)cc(Cl)c1O", "note": "[Example 1, 5-Bromo-3-chloro-N-(1-cyclopentyl-1H-imidazol-4-yl)-2-hydroxybenzenesulfonamide]", "Ki": 160}, {"smiles": "O=C(c1nc(NS(=O)(=O)c2cc(Br)cc(Cl)c2O)cn1C1CCCC1)N1CCC(C2CCNC2)CC1", "note": "(centres unmarked) [Example 54, 5-Bromo-3-chloro-N-(1-cyclopentyl-2-(4-(pyrrolidin-3-yl)piperidine-1-carbonyl)-1H-imidazol-4-yl)-2-hydroxybenzenesulfonamide]", "Ki": 990}, {"smiles": "O=S(=O)(Nc1nc2ccccc2s1)c1cc(Br)cc(Cl)c1O", "note": "[Example 37, N-(Benzo[d]thiazol-2-yl)-5-bromo-3-chloro-2-hydroxybenzenesulfonamide]", "Ki": 120}, {"smiles": "O=S(=O)(Nc1cn(C(C2CC2)C2CC2)cn1)c1cc(Br)cc(Cl)c1O", "note": "[Example 18, 5-Bromo-3-chloro-N-(1-(dicyclopropylmethyl)-1-imidazol-4-yl)-2-hydroxybenzenesulfonamide]", "Ki": 970}, {"smiles": "O=S(=O)(Nc1cn(CC2CCCO2)cn1)c1cc(Br)ccc1O", "note": "(centres unmarked) [Example 16, 5-Bromo-2-hydroxy-N-(1-((tetrahydrofuran-2-yl)methyl)-1H-imidazol-4-yl)benzenesulfonamide]", "Ki": 19200}, {"smiles": "O=S(=O)(Nc1cn(C2CCNC2)cn1)c1cc(Br)cc(Cl)c1O", "note": "(centres unmarked) [Example 31, 5-Bromo-3-chloro-2-hydroxy-N-(1-(pyrrolidin-3-yl)-1H-imidazol-4-yl)benzenesulfonamide]", "Ki": 10300}, {"smiles": "O=S(=O)(Nc1cn(CC2CCCO2)cn1)c1cc(Br)cc(Cl)c1O", "note": "(centres unmarked) [Example 15, 5-Bromo-3-chloro-2-hydroxy-N-(1-((tetrahydrofuran-2-yl)methyl)-1H-imidazol-4-yl)benzenesulfonamide]", "Ki": 4030}, {"smiles": "Cc1nc(NS(=O)(=O)c2cc(Br)cc(Cl)c2O)cn1C1CCC1", "note": "[Example 17, 5-Bromo-3-chloro-N-(1-cyclobutyl-2-methyl-1-imidazol-4-yl)-2-hydroxybenzenesulfonamide]", "Ki": 660}, {"smiles": "O=S(=O)(Nc1cn(CC2CC2)cn1)c1cc(Br)cc(Cl)c1O", "note": "[Example 5, 5-Bromo-3-chloro-N-(1-(cyclopropylmethyl)-1H-imidazol-4-yl)-2-hydroxybenzenesulfonamide]", "Ki": 820}, {"smiles": "O=S(=O)(Nc1cc(-c2ccccc2)[nH]n1)c1cc(Br)cc(Cl)c1O", "note": "[Example 35, 5-Bromo-3-chloro-2-hydroxy-N-(5-phenyl-1H-pyrazol-3-yl)benzenesulfonamide]", "Ki": 1100}]}, {"test_system": "MYC", "assay": "ChIP: disruption of binding of MYC to chromatin", "format": "cell-based", "details": "HEK293 cells expressing HA-tagged MYC, 20 μM, 10 h", "procedure": "(§1) HEK293 cells expressing HA-tagged MYC and GFP were plated in growth media. Upon reaching approximately 70% confluence, cells were washed once with PBS then treated for 10 h with 20 μM compound in OptiMEM media. Cells were cross linked at room temperature in PBS containing 1% Formaldehyde for 10 minutes, then cells were scraped into 1.5 mL PBS supplemented with 125 mM Glycine. Cells were collected by centrifugation, washed once with PBS+125 mM Glycine, and pellets stored frozen. Chromatin was prepared by lysing cells at 80×10^6 per mL in ChIP Lysis Buffer (50 mM Tris pH 8.0, 140 mM NaCl, 1 mM EDTA, 1% Triton, 1% SDS and supplemented with protease inhibitor cocktail), Samples were sonicated (BioRuptor) for 30 minutes and cleared by centrifugation. Precipitation was performed essentially as described [Thomas L R 2015 Mol Cell] by diluting chromatin 1:9 in ChIP buffer without SDS. Decrosslinked DNA was diluted to 500 μL with water and 7.5 μL was used for each qPCR reaction. Percent input was calculated by comparison to a 30-fold dilution of decrosslinked chromatin. Primers used for ChIP have been described in Thomas, L. R.; Adams, C. M.; Wang, J.; Weissmiller, A. M.; Creighton, J.; Lorey, S. L.; Liu, Q.; Fesik, S. W.; Eischen, C. M.; Tansey, W. P. Interaction of the Oncoprotein Transcription Factor MYC with its Chromatin Cofactor WDR5 is Essential for Tumor Maintenance. […]", "values": [{"smiles": "CS(=O)(=O)c1nc(NS(=O)(=O)c2cc(Br)cc(Cl)c2O)cn1C1CCCC1", "note": "[Example 26, 5-Bromo-3-chloro-N-(1-cyclopentyl-2-(methylsulfonyl)-1H-imidazol-4-yl)-2-hydroxybenzenesulfonamide]", "amount of MYC at ZFPM1 and ZMF771 (MYC binding independent of WDR5)": "nearly unaffected", "amount of MYC at loci where MYC recruitment is dependent on WDR5 (C7orf40, RNPS1, RPS14, and RPL5)": "reduction"}]}, {"molecular_target": "T1, WDR5", "assay": "ChIP for WDR5 binding to chromatin", "format": "cell-based", "details": "HEK293 cells, 20 μM, 10 h", "procedure": "as §1", "values": [{"smiles": "CS(=O)(=O)c1nc(NS(=O)(=O)c2cc(Br)cc(Cl)c2O)cn1C1CCCC1", "note": "[Example 26, 5-Bromo-3-chloro-N-(1-cyclopentyl-2-(methylsulfonyl)-1H-imidazol-4-yl)-2-hydroxybenzenesulfonamide]", "WDR5 levels at these loci (ChIP for WDR5) versus negative control compound": "comparable levels"}]}]}
